The source of these data is patent publication US12365658B2, “Benzothia(di)azepine compounds and their use as bile acid modulators” (Albireo AB, priority 2021, dated 2025).

Series [1] concerns the target T1, Human IBAT (Homo sapiens, UniProt Q12908).
T1 construct: expressed in transfected cells; kept under Puromycin selection
T1 sequence (Q12908 1-348): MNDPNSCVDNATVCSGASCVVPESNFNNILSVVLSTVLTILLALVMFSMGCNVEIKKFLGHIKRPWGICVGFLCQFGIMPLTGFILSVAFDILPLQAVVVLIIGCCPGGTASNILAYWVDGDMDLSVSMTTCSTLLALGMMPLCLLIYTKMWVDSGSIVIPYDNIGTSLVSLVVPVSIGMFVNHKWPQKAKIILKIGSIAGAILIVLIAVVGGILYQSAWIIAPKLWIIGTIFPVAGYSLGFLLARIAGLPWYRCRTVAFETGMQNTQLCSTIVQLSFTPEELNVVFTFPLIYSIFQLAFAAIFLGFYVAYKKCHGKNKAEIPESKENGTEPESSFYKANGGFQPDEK
Nature of the series: IBAT (h/m) assay, human IBAT-overexpressing cells, 3H-taurocholic acid uptake. In kind it is cell-based. The following applies: 0.25 μM 3H-taurocholic acid and 5 μM cold taurocholic acid, 20 minutes, highest test concentration 10 μM, read-out: hIBAT IC50. Here is the method: IBAT (h/m) Assay Protocol
10,000 cells (Human or Mouse IBAT-overexpressing cells) were seeded in 96-wells plate (Corning CLS3809) in 200 μL MEM-alpha medium (Gibco 12571-063) supplemented with 10% FBS (Gibco 10438026) containing Puromycin (Gibco A1113803) (10 μg/mL) and incubated at 37° C. in 5% CO2 for 48 hours. After incubation, media was decanted from the wells and cells were washed two times with 300 μL of basal MEM-alpha medium (FBS-free). After decanting basal MEM-alpha medium each time, plates were tapped against paper towel to ensure maximum removal of residual media. Test inhibitor dilutions (highest test concentration being 10 μM, 3-fold serial dilution, 10 points) prepared in DMSO (Sigma D2650) were added in incubation mix (maintaining 0.2% final DMSO concentration) containing 0.25 μM 3H-taurocholic acid (ARC ART-1368) and 5 μM of cold taurocholic acid (Sigma T4009). 50 μL of incubation mix containing test inhibitors was then added to the wells (in duplicate) and the plates were incubated for 20 minutes in a CO2 incubator at 37° C. After incubation, the reaction was stopped by keeping the plates on ice water mix for 2-3 minutes and then the incubation mix was aspirated completely from the wells. The wells were washed two times with 250 μL of chilled unlabelled 1 mM taurocholic acid dissolved in HEPES (Gibco 15630080)-buffered (10 mM) HBSS (Gibco 14175079) (pH 7.4). The plates were tapped against a paper towel after every wash to ensure maximum removal of blocking buffer.
100 μL of MicroScint-20 (PerkinElmer 6013621) was added to the wells and kept overnight at room temperature before reading the plates in TopCount NXT™ Microplate Scintillation and Luminescence Counter from PerkinElmer under 3H Test protocol (set at 120 seconds reading time per well).
Preparation of Test Compound Dilutions
All test compounds were provided in powder form at room temperature. 10 mM DMSO stocks of the test compounds were prepared, aliquoted and stored at −20° C. From the 10 mM DMSO stock of the compounds, a 3-fold serial dilution in DMSO was prepared to get a total of 10 dilutions of the test compounds. 0.5 μL of this dilution in DMSO was added to 250 μL of FBS-free basal media containing 3H-taurocholic acid and cold taurocholic acid to prepare the incubation mixture.

Series [2] can be described thus: Bidirectional permeability assay (Caco-2 cells). The series is classed as in vitro ADME. The following applies: human, 10 μM in FaSSIF buffer; for Papp A→B at 120 min, 10 μM: Caco-2, pH 7.4, absorptive direction (A2B); for Papp B→A at 120 min, 10 μM: Caco-2, pH 7.4, secretory direction (B2A). How it is done:
Bidirectional Permeability Assay (Caco-2 Cells)
Caco-2 cells (Evotec) were seeded at a density of 70,000 cells/well in Millicell® 24-well cell culture insert plates and maintained in an incubator (37° C., 5% CO2, 95% RH) for 21 days with media change on alternate days.
Stock solutions (10 mM) of the test compounds, atenolol (low permeability marker), propranolol (high permeability marker) and digoxin (substrate for P-gp transport pathway) were prepared in dimethylsulfoxide (DMSO). An intermediate stock solution (1 mM) was prepared by diluting 10 μL of 10 mM master stock solution with 90 μL of neat DMSO. A working stock solution (10 μM) was prepared by diluting 50 μL of 1 mM with 4950 μL of FaSSIF buffer. Post addition of compounds to the FaSSIF, samples were subjected to sonication for 2 hours, and centrifuged at 4000 RPM for 30 minutes at 37° C. The 4 mL of resultant supernatant was directly used in the assay. The final DMSO concentration in the transport experiments was 1%.
On the day of assay, Caco-2 monolayers were washed twice with transport buffer (HBSS, pH 7.4) and pre-incubated for 30 min (37° C., 5% CO2, 95% RH) in an incubator. The electrical resistance of the monolayers was measured with a Millicell®-ERS system. Monolayers with trans-epithelial electrical resistance (TEER) values greater than 350 ohm·cm^2 were selected for the assay.
The assay was conducted in absorptive direction (A2B) and secretory (B2A) directions. Transport experiments were initiated by addition of transport assay buffer (FaSSIF buffer prepared in HBSS) consisting of compounds to the donor compartment (apical chamber A-B; basolateral chamber B-A) in duplicate (n=2) wells. Drug free HBSS buffer (pH 7.4) containing 1% bovine serum albumin (BSA) was introduced to the receiver (A-B-basolateral; B-A-Apical) compartments. The volumes of apical and basolateral compartments were 0.4 and 0.8 mL, respectively. After adding dosing solution, plates were incubated in an incubator for 120 minutes at 37° C. After 120 minutes, donor and receiver samples were collected and matrix matched (1:1, 30 μL study sample+30 μL blank buffer) with the opposite buffer. Dosing samples matrix matched (1:1, 30 μL study sample+30 μL blank buffer) with the opposite buffer. Samples were processed by adding acetonitrile containing internal standard (60 μL study sample+200 μL acetonitrile containing internal standard-Tolbutamide, 500 ng/mL). Samples were vortexed and centrifuged at 4000 rpm for 10 minutes. The obtained supernatant (100 μL) was diluted with 100 μL of water and transferred to fresh 96 well plates. The concentration of compounds in the samples was analyzed by liquid chromatography tandem mass spectrometry (LC-MS/MS) method using discovery grade bio-analytical method, as applicable.
The mean apparent permeability (Papp, ×10^−6 cm/sec) of the test compounds, atenolol, propranolol and digoxin were calculated as follows:
where dq/dt=rate of transport (rate of transport of compound in the receiver compartment), C0=initial concentration in the donor compartment, A=surface area of the effective filter membrane.
(In general: Caco-2 monolayers are a common model of the intestinal barrier.)

Take `CCCCC1CN(c2ccccc2)c2cc(SC)c(OCC(C)(C)C(=O)O)cc2S(=O)(=O)N1C` (single isomer, unassigned) [2, enantiomer 2]: the IC50 (commonly the concentration that gives 50% inhibition) in series [1] was 682 nM. Also, in series [2], the Papp A→B (commonly the apparent permeability from the apical to the basolateral side of a cell layer) at 120 min, 10 μM amounted to 13.2 ×10⁻⁶ cm/s and the Papp B→A (usually how fast a substance crosses the layer from the basolateral side) at 120 min, 10 μM is 15.2 ×10⁻⁶ cm/s.
On the same counts, the results for `CCCCC1CN(c2ccccc2)c2cc(SC)c(OCC3(C(=O)O)CC3)cc2S(=O)(=O)N1C` (single isomer, unassigned) [4, enantiomer 2] are 294 nM, 18.8 ×10⁻⁶ cm/s and 13 ×10⁻⁶ cm/s.
On the same counts, the results for `CCCCC1CN(c2ccccc2)c2cc(SCC)c(OCC(C)(C)C(=O)O)cc2S(=O)(=O)N1C` (single isomer, unassigned) [6, enantiomer 2] are 290 nM, 8.6 ×10⁻⁶ cm/s and 6.5 ×10⁻⁶ cm/s.
As to `CCCCC1CN(c2ccccc2)c2cc(SCC)c(OCC3(C(=O)O)CC3)cc2S(=O)(=O)N1C` (single isomer, unassigned) [8, enantiomer 1], the IC50 in series [1] was found to be 166 nM. In series [2], this compound displayed a Papp A→B at 120 min, 10 μM of 15.8 ×10⁻⁶ cm/s and a basolateral-to-apical permeability (Papp B→A) at 120 min, 10 μM of 5 ×10⁻⁶ cm/s.
Regarding `CCCCC1CN(c2ccccc2)c2cc(SC)c(OCC(C)(OC)C(=O)O)cc2S(=O)(=O)N1C` (single isomer, unassigned) [24, diastereomer 1], the 50% inhibitory concentration (IC50) in series [1] stood at 1030 nM.
Still for that read-out and setting: then `CCCCC1CN(c2ccccc2)c2cc(SC)c(OCC(C)(OC)C(=O)O)cc2S(=O)(=O)N1C` (single isomer, unassigned) [24, diastereomer 2], with 412 nM.
`CCCCC1CN(c2ccccc2)c2cc(SC)c(OCC(OC)C(=O)O)cc2S(=O)(=O)N1C` (single isomer, unassigned) [32, diastereomer 1]: the IC50 in series [1] was 2400 nM. In series [2], this compound gave a Papp A→B at 120 min, 10 μM of 5.2 ×10⁻⁶ cm/s and a basolateral-to-apical permeability (Papp B→A) at 120 min, 10 μM of 15.9 ×10⁻⁶ cm/s.
As for `CCCCC1CN(c2ccccc2)c2cc(SC)c(OCC(C)(OC)C(=O)O)cc2S(=O)(=O)N1C` (single isomer, unassigned) [Example 23, 3-((3-Butyl-2-methyl-7-(methylthio)-1,1-dioxido-5-phenyl-2,3,4,5-tetrahydro-1,2,5-benzothiadiazepin-8-yl)oxy)-2-methoxy-2-methylpropanoic acid], in series [1], the 50% inhibitory concentration (IC50) was found to be 257 nM. Further, in series [2], the Papp A→B at 120 min, 10 μM worked out at 10.6 ×10⁻⁶ cm/s and the Papp B→A at 120 min, 10 μM was 30.2 ×10⁻⁶ cm/s.
On the same counts, the results for `CCCCC1CN(c2ccccc2)c2cc(SC)c(OCC3(C(=O)O)CC3)cc2S(=O)(=O)N1C` (centres unmarked) [Example 3, 1-(((3-Butyl-2-methyl-7-(methylthio)-1,1-dioxido-5-phenyl-2,3,4,5-tetrahydro-1,2,5-benzothiadiazepin-8-yl)oxy)methyl)cyclopropane-1-carboxylic acid] are 274 nM, 20.8 ×10⁻⁶ cm/s and 12.9 ×10⁻⁶ cm/s.
Consider `CCCCC1CN(c2ccccc2)c2cc(SCC)c(OCC(C)(C)C(=O)O)cc2S(=O)(=O)N1C` (centres unmarked) [Example 5, 3-((3-Butyl-7-(ethylthio)-2-methyl-1,1-dioxido-5-phenyl-2,3,4,5-tetrahydro-1,2,5-benzothiadiazepin-8-yl)oxy)-2,2-dimethylpropanoic acid], for which, in series [1], the 50% inhibitory concentration (IC50) came out at 615 nM. Further, in series [2], the Papp A→B at 120 min, 10 μM amounted to 9.4 ×10⁻⁶ cm/s and the Papp B→A at 120 min, 10 μM was determined as 7.2 ×10⁻⁶ cm/s.
Regarding `CCCCC1CN(c2ccccc2)c2cc(SCC)c(OCC3(C(=O)O)CC3)cc2S(=O)(=O)N1C` (centres unmarked) [Example 7, 1-(((3-Butyl-7-(ethylthio)-2-methyl-1,1-dioxido-5-phenyl-2,3,4,5-tetrahydro-1,2,5-benzothiadiazepin-8-yl)oxy)methyl)cyclopropane-1-carboxylic acid], the 50% inhibitory concentration (IC50) in series [1] was determined as 405 nM. Moreover, in series [2], the apical-to-basolateral permeability (Papp A→B) at 120 min, 10 μM amounted to 8.1 ×10⁻⁶ cm/s and the apparent permeability from basolateral to apical (Papp B→A) at 120 min, 10 μM is 3.8 ×10⁻⁶ cm/s.
Taken in the same sequence, the figures for `CCCCC1CN(c2ccc(F)cc2)c2cc(SC)c(OCC(C)(C)C(=O)O)cc2S(=O)(=O)N1C` (centres unmarked) [Example 13, 3-((3-butyl-5-(4-fluorophenyl)-2-methyl-7-(methylthio)-1,1-dioxido-2,3,4,5-tetrahydro-1,2,5-benzothiadiazepin-8-yl)oxy)-2,2-dimethylpropanoic acid] were 360 nM, 10.8 ×10⁻⁶ cm/s and 8.6 ×10⁻⁶ cm/s.
On the same counts, the results for `CCCCC1CN(c2ccccc2)c2cc(SC)c(OCC(C)(OC)C(=O)O)cc2S(=O)(=O)N1C` (centres unmarked) [Example 22, 3-((3-Butyl-2-methyl-7-(methylthio)-1,1-dioxido-5-phenyl-2,3,4,5-tetrahydro-1,2,5-benzothiadiazepin-8-yl)oxy)-2-methoxy-2-methylpropanoic acid] are 428 nM, 11.7 ×10⁻⁶ cm/s and 21.5 ×10⁻⁶ cm/s.
On the same counts, the results for `CCCCC1CN(c2ccc(F)cc2)c2cc(SCC)c(OCC(O)C(=O)O)cc2S(=O)(=O)N1C` (centres unmarked) [Example 33, 3-((3-butyl-7-(ethylthio)-5-(4-fluorophenyl)-2-methyl-1,1-dioxido-2,3,4,5-tetrahydro-1,2,5-benzothiadiazepin-8-yl)oxy)-2-hydroxypropanoic acid] are 117 nM, 2.2 ×10⁻⁶ cm/s and 4.3 ×10⁻⁶ cm/s.
